Data reported in publication PMC12818745 (ACS Chemical Neuroscience, 2025).

Columns and labels:
[1] = biological target: eeAChE (Electrophorus electricus AChE) (Electrophorus electricus, UniProt O42275); experiment: Cholinesterase inhibition assay (modified Ellman's method), eeAChE; assay type: biochemical; details: for SI eeAChE: ratio eqBChE IC50/eeAChE IC50
From the text: (§1) Compound series A and B were initially screened for their cholinesterase activity against eeAChE (Electrophorus electricus AChE) and eqBChE (equine serum butyrylcholinesterase), using an adaptation of the Ellman’s method. […]. […] Similarly, replacing the terminal triple bond in 7l with a nitrile group reduced its activity, while replacing the O-propargyl group with an N,N-dipropargyl group in 10 enhanced the inhibition of both enzymes, particularly BChE (Table ). The installation of an additional aryl ring in 7o further improved AChE inhibition, slightly increasing selectivity toward this enzyme. […]. […]. […]. The inhibitory activity of the synthesized compounds toward eeAChE and eqBChE was evaluated spectrophotometrically through a 96-well microplate modified Ellman’s method. The solutions of both enzymes were prepared as 0.025 U/mL in phosphate buffer at pH 7, from stock solutions of 5.05 U/mL and 7.50 U/mL, respectively. The stock solutions for the target compounds (0.1 M) were prepared in dimethyl sulfoxide (DMSO). […] The reaction mixture was prepared with 100 μL of the enzyme (eeAChE or eqBChE) and 50 μL of the test compound (or DMSO/water, not exceeding 0.2% of DMSO in the wells; i.e blank samples). After 5 min of the preincubation period at 37 °C, 50 μL of ATChI or BTChI and 50 μL of DTNB were added to each well, thus initiating the enzymatic reaction. The absorbance values were measured at 415 nm, for a total of 7.5 min, at every 2.5 min, using a microplate reader (Synergy multimode reader; BioTek). […]. All experiments were performed in triplicate.

[2] = biological target: T1, Aβ42 aggregation (Homo sapiens, UniProt P05067); experiment: Thioflavin S assay of Aβ42 aggregation in E. coli cells overexpressing Aβ42; assay type: cell-based, Escherichia coli; details: read-out: Aβ42 inhibition %
T1 construct: expressed in transfected cells; host or cells: E. coli BL21 (DE3), pET vector
T1 sequence (P05067 672-713): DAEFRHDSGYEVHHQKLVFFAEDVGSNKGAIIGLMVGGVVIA
Method: (§2) The antiaggregating profiles of both series A and B were evaluated using a fluorescence Thioflavin S (ThS) assay in cellulo, which monitors ThS fluorescence in the presence of β-sheet-rich structures, such as Aβ and tau protein aggregates. This method, based on recombinant Escherichia coli (E. coli) bacteria overexpressing insoluble aggregates, offers a simple and cost-effective approach to model aggregation processes in mammalian systems and has been validated for use in drug discovery studies. , Compounds were tested at a screening concentration of 50 μM for their ability to inhibit Aβ42 aggregation. The results, summarized in Table , reveal distinct antiaggregating profiles between series A and B, which are once again influenced by their structural differences.
42 Amino acid Aβ42 was cloned and overexpressed in E. coli BL21 (DE3) competent cells using the pET vector harboring the DNA sequence of Aβ42. Due to the addition of the initiation codon ATG preceding genes, the resulting overexpressed peptide contained an additional methionine residue at its N-terminus. For the preparation of overnight cultures, a colony of BL21 (DE3) cells carrying the plasmid for expression was inoculated in 10 mL of M9 minimal medium supplemented with 50 μg mL^–1 kanamycin at 37 °C. Subsequently, a 1:500 dilution of the overnight culture was added to fresh M9 minimal medium containing 50 μg mL^–1 kanamycin and 25 μM ThS. The bacterial culture was then incubated at 37 °C with agitation at 250 rpm. Upon reaching an OD600 of 0.6, 980 μL of the culture was transferred into 1.5 mL Eppendorf tubes, each containing 10 μL of the compound to be tested dissolved in DMSO and 10 μL of 100 mM isopropyl 1-thio-β-D-galactopyranoside (IPTG) or, alternatively, 10 μL of water for the noninduced controls. The final compound concentration was adjusted to […]. The samples were allowed to grow overnight at 37 °C with agitation at 1400 rpm using a Thermomixer (Eppendorf). Negative controls, representing maximum amyloid presence, utilized free DMSO.
(§3) ThS (T1892) and all other chemical reagents were purchased from Sigma (St. Louis, MO). Stock solutions of ThS (250 μM) were prepared using doubly distilled water purified via a Milli-Q system (Millipore). For the fluorescence assay, ThS spectra were recorded utilizing an AmincoBowman series 2 luminescence spectrophotometer (Aminco-Bowman AB2, SLM Aminco, Rochester, NY) within the range of 460 to 600 nm at a temperature of 25 °C. The excitation wavelength employed was 445 nm, with slit widths set at 4 nm. The emission at 485 nm, corresponding to the ThS peak observed in the presence of amyloids, was recorded. To standardize ThS fluorescence relative to bacterial concentration in both in vitro and cell-based assays, the OD600 was determined using a Shimadzu UV-2401 PC UV–vis spectrophotometer. Fluorescence normalization was executed by setting the ThS fluorescence of bacterial cells expressing the peptide or protein in the absence of the drug as 100%, while that of bacterial cells not expressing the peptide or protein was established as 0%.

[3] = biological target: T2, Tau protein aggregation (Homo sapiens, UniProt P10636); experiment: Thioflavin S assay of tau protein aggregation in E. coli cells overexpressing tau; assay type: cell-based, Escherichia coli; details: read-out: Tau inhibition %
T2 construct: For the cloning and overexpression of full-length tau protein; expressed in transfected cells; host or cells: E. coli BL21 (DE3) carrying pTARA and pRKT42
T2 sequence (P10636 other isoform, or with tags, fused parts or gaps): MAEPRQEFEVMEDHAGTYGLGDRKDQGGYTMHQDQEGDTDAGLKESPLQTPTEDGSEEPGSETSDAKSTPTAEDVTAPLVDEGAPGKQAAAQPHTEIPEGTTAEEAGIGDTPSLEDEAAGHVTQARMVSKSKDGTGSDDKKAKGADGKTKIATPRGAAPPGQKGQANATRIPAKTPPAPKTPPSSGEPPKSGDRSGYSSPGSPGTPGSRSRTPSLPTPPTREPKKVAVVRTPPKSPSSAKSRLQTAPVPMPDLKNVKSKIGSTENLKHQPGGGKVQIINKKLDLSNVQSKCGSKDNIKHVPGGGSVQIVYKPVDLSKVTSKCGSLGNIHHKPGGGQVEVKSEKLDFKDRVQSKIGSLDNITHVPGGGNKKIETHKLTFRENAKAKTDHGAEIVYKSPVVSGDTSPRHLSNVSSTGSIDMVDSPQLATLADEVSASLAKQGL
Method: as §2
This strategic extension aimed to validate the chromeno[3,4-b]-xanthone scaffold for related aggregation targets, considering the structural and pathological similarities between Aβ and tau aggregation processes. […]. […] Nevertheless, it is important to interpret the results cautiously, as the inability of certain compounds to cross bacterial membranes, may have underestimated their true inhibitory activity in the assay.
For the cloning and overexpression of full-length tau protein, E. coli BL21 (DE3) competent cells were transformed first with the pTARA vector containing the RNA polymerase gene of phage T7 (T7RP), controlled by the PBAD promoter. Subsequently, E. coli BL21(DE3) competent cells containing pTARA were transformed with the pRKT42 vector encoding four repeats of tau protein in two inserts. Similar to the procedure for Aβ42, overnight cultures were prepared by inoculating colonies of BL21 (DE3) cells bearing the plasmids in M9 medium supplemented with 0.5% glucose, 50 μg mL^–1 ampicillin, and 12.5 μg mL^–1 chloramphenicol at 37 °C. Upon induction, a 1:500 dilution of the overnight culture was added to fresh M9 minimal medium containing 0.5% glucose, 50 μg mL^–1 ampicillin, 12.5 μg mL^–1 chloramphenicol, and 25 μM ThS. The subsequent steps mirrored those for the Aβ assay, including the addition of the compound to be tested dissolved in DMSO and 10 μL of 25% arabinose or, alternatively, 10 μL of water for the noninduced controls, with a final compound concentration of […]. Negative controls for tau overexpression utilized free DMSO.
as §3

[4] = in vitro; details: for Prediction (penetration into the CNS): class from PAMPA-BBB P e; for Papp at 2.5 h: pig, PAMPA, pH 7.4
Method: To assess BBB permeability, a parallel artificial membrane permeability assay (PAMPA)-BBB was performed, which predicts passive BBB permeability using a brain lipid porcine membrane.
The prediction of the brain penetration was evaluated using a PAMPA-BBB. […] Next, 100 μL of these stock solutions were added to a solution of 1400 μL of EtOH and 3500 μL of PBS at pH 7.4, to reach 30% of EtOH concentration in the experiment. These solutions were filtered, using Filter PDVF membrane units (diameter 30 mm, pore size 0.45 μm, from Symta). After this, the acceptor 96-well microplate (Multiscreen, catalogue no. MAMCS9610, from Millipore) was filled with 180 μL of PBS/EtOH (70/30). […] After 5 min, 180 μL of each compound solution was added. 1–2 mg of each selected compound was dissolved in 1500 μL of EtOH and 3500 μL of PBS at pH 7.4, filtered, and then added to the donor 96-well plate to determine their ability to cross the brain barrier. After this, the donor plate was carefully put on the acceptor plate to form a “sandwich” and incubated for 2.5 h at 25 °C. During this period, the compounds diffused from the donor plate through the brain lipid membrane into the acceptor plate. Afterward, the donor plate was removed. A 96-well plate UV reader (Thermoscientific, Multiskan spectrum) was used to determine the concentration of compounds and commercial drugs in the acceptor and donor wells. Every sample was analyzed at three to five wavelengths, in three wells, and in two independent runs. […] Ten quality control compounds (previously mentioned) of known BBB permeability were included in each experiment to validate the analysis set.

[5] = biological target: T3, eqBChE (equine serum butyrylcholinesterase) (Equus caballus, UniProt P81908); experiment: Cholinesterase inhibition assay (modified Ellman's method), eqBChE; assay type: biochemical
T3 construct: eqBChE (equine serum butyrylcholinesterase); from tissue; host or cells: equine serum
T3 sequence (P81908 whole entry): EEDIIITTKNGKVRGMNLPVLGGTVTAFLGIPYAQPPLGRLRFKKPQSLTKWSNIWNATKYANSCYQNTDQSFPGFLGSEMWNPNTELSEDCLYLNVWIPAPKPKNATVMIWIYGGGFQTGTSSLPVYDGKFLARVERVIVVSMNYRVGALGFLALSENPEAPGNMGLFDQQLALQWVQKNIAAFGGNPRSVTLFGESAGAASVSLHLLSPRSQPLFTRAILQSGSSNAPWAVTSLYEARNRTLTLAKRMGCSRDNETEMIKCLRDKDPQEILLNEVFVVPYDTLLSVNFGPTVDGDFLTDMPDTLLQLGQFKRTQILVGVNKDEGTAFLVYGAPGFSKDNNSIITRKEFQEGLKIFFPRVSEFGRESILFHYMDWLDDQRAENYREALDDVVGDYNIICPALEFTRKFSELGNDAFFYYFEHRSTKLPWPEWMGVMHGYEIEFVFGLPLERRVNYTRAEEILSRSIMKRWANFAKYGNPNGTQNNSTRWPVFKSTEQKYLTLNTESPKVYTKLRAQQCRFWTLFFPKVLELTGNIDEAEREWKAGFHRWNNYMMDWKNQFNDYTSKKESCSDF
From the text: as §1

Chain of eeAChE (Electrophorus electricus AChE) (O42275 24-633): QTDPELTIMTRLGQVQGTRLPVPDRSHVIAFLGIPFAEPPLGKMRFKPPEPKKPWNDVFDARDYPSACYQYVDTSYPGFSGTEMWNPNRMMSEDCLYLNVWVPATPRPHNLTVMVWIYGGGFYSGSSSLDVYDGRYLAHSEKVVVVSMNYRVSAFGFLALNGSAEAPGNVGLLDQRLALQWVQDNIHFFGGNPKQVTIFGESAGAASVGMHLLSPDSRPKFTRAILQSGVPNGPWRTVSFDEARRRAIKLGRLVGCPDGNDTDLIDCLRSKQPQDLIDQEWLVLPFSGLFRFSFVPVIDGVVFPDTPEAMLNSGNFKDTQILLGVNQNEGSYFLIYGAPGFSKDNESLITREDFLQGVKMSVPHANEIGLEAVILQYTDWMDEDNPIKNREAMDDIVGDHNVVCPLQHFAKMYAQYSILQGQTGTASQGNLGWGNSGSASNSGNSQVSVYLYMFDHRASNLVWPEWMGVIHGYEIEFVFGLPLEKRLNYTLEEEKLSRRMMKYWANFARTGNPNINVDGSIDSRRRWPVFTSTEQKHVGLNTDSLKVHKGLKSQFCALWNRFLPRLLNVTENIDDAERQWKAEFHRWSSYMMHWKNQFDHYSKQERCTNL

Row | Structure (SMILES) | IC50 [1] [µM] | inhibition at 50 µM [2] [%] | inhibition at 50 µM [3] [%] | Prediction (penetration into the CNS) [4] | Papp at 2.5 h [4] [×10⁻⁶ cm/s] | SI eeAChE [1] | IC50 [5] [µM]
1 | COc1ccc2c(=O)c3cc4c(cc3oc2c1)-c1cc(F)ccc1OC4 [Compound 11q, 2-Fluoro-11-methoxy-6H,8H-chromeno[3,4-b]xanthen-8-one] | 4.3 ± 1.5 | 50 ± 6.7 | 55 ± 5.9 | CNS+ (High BBB permeation predicted (CNS+) P e > 3.93) | 6.04 ± 1.99 |  | 
2 | COc1ccc2c(=O)c3cc4c(cc3oc2c1)-c1c(ccc2ccccc12)OC4 [Compound 12b] |  | 54 ± 6.2 | 57 ± 7 |  |  |  | 
3 | O=c1c2ccccc2oc2cc3c(cc12)COc1ccc(F)cc1-3 [Compound 11i, 2-Fluoro-6H,8H-chromeno[3,4-b]xanthen-8-one] |  | 47 ± 8.4 | 52 ± 6.3 |  |  |  | 
4 | O=c1c2ccccc2oc2cc3c(cc12)COc1c(Br)cc(Cl)cc1-3 [Compound 11k, 4-Bromo-2-chloro-6H,8H-chromeno[3,4-b]xanthen-8-one] | 4.2 ± 0.9 | 46 ± 3.7 | 52 ± 7.2 | CNS± (Uncertain BBB permeation (CNS±) 3.93 > P e > 1.82) | 2.3 ± 1.11 | 1.48 | 6.2 ± 1
5 | COc1ccc2c(=O)c3cc4c(cc3oc2c1)-c1cc(Cl)cc(Br)c1OC4 [Compound 11s, 4-Bromo-2-chloro-11-methoxy-6H,8H-chromeno[3,4-b]xanthen-8-one] | 1.7 ± 1.2 | 46 ± 6.3 | 58 ± 7.1 | CNS+ (High BBB permeation predicted (CNS+) P e > 3.93) | 8.7 ± 0.61 | 4.12 | 7 ± 0.4
